Results published in patent publication US11274090B2, “P300/CBP HAT inhibitors” (Constellation Pharmaceuticals, Inc., priority 2018, dated 2022).

Molecular target: p300 HAT domain (residues 1287-1666) (Homo sapiens (Human), UniProt Q09472)
Test: p300 HAT SPA assay (scintillation proximity assay, acetylation of biotinylated H3(1-21) peptide)
Assay type: biochemical
Details: average of at least 2 replicate titrations
Method: In a typical experiment the p300 HAT inhibitory activity of the compounds described herein was determined in accordance with the following experimental method.
The expressed protein was purified by Ni2+ affinity, followed by anion exchange chromatography. Appropriate fractions were pooled and buffer exchanged into 20 mM Hepes pH 7.5, 150 mM NaCl, and 1 mM TCEP.
35 μL of the reaction volume was transferred to a 384-well streptavidin FlashPlate (PerkinElmer) using a Bravo liquid handler (Velocity 11) and incubated for 1.5 hr at RT. […] Data were analyzed in Genedata to determine inhibitor IC50 values.

p300 HAT domain (residues 1287-1666), sequence (Q09472 1287-1666): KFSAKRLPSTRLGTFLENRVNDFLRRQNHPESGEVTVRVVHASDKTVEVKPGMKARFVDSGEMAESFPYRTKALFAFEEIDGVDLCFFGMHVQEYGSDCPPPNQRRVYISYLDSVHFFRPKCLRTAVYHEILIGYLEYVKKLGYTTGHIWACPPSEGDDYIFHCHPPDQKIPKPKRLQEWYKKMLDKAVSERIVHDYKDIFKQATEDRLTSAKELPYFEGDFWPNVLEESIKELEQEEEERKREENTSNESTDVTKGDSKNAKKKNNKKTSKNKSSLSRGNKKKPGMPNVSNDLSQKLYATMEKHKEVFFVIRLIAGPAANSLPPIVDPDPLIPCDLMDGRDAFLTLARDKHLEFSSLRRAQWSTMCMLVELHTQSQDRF

Structure (SMILES)	IC50 [nM]
Cc1ncc(C(C)CNC(C(=O)Nc2ccc(-c3cnn(C)c3)cn2)c2ccccc2)cn1 (single isomer, unassigned) [150 Isomer 1]	> 2000
Cc1ncc(C(C)CNC(C(=O)Nc2ccc(-c3cnn(C)c3)cn2)c2ccccc2)cn1 (single isomer, unassigned) [150 Isomer 3]	> 2000
CC(CNC(C(=O)Nc1ccc(-c2cnn(C(F)F)c2)cn1)c1cnn(C)c1)c1ccc(C#N)cc1 (single isomer, unassigned) [128 Isomer 1]	572
Cc1nn(C)c(C)c1-c1ccc(NC(=O)C(NC[C@@H](C)c2ccc(C#N)cc2)c2ccccc2)nc1 (single isomer, unassigned) [130 Isomer 1]	< 2000
C[C@H](CNC(C(=O)Nc1ccc(C2CC(=O)N(C)C2)cn1)c1ccccc1)c1ccc(C#N)cc1 (single isomer, unassigned) [109 Isomer 3]	61.3
Cc1ncc(-c2ccc(NC(=O)[C@H](NC[C@@H](C)c3ccc(C#N)cc3)c3ccccc3)nc2)cn1 (single isomer, unassigned; isomer 3) [6 Isomer 3]	> 2000
C[C@H](CNC(C(=O)Nc1ccc(-c2cnn(CC(=O)N(C)C)c2)cn1)c1cccc(F)c1)c1ccc(C#N)cc1 (single isomer, unassigned) [138 Isomer 1]	435
COC1CN(c2ccc(NC(=O)C(NCC(C)c3ccc(C#N)cc3)c3ccccc3)nc2)C1 (single isomer, unassigned) [32 Isomer 2]	18.8
Cn1cc(-c2ccc(NC(=O)C(NCCc3ccc(C#N)cc3)C3CCCCC3)nc2)cn1 (single isomer, unassigned) [89 Isomer 1]	> 2000
CC(CNC(C(=O)Nc1ccc(N2CCN(C)S2(=O)=O)cn1)c1ccccc1)c1ccc(C#N)cc1 (single isomer, unassigned) [108 Isomer 2]	23.7
CC(CNC(C(=O)Nc1ccc(-c2cnn(C)c2)cc1)c1ccccc1)c1ccc(Cl)cc1 (single isomer, unassigned) [2 Isomer 1]	> 5000
O=C(Nc1ccc(-c2cccnn2)cc1)C(NCCc1ccc(Cl)cc1)c1ccccc1 (single isomer, unassigned) [10 Isomer 2]	580
CC(CNC(C(=O)Nc1ccc(N2CCN(C)C(=O)C2)cn1)c1cnn(C)c1)c1ccc(C#N)cc1 (single isomer, unassigned) [136 Isomer 1]	> 2000
Cc1noc(C)c1-c1ccc(NC(=O)C(NC[C@@H](C)c2ccc(C#N)cc2)c2ccccc2)nc1 (single isomer, unassigned) [131 Isomer 1]	367
CC(CNC(C(=O)Nc1ccc(N2CCN(CC(F)(F)F)C(=O)C2)cn1)c1ccccc1)c1ccc(C#N)cc1 (single isomer, unassigned) [103 Isomer 1]	> 2000
CO[C@H]1CCN(c2ccc(NC(=O)C(NCC(C)c3ccc(C#N)cc3)c3ccccc3)nc2)C1 (single isomer, unassigned) [93 Isomer 3]	36
CC(CNC(C(=O)Nc1ccc(N2CCN(C)C(=O)C2)cn1)c1cnn(C)c1)c1ccc(C#N)cc1 (single isomer, unassigned) [136 Isomer 4]	> 2000
NS(=O)(=O)c1ccc(CCN[C@H](C(=O)N2CCc3ccccc32)c2ccccc2)cc1 (single isomer, unassigned) [153 Isomer 1]	> 60000
CC1CN(C)C(=O)CN1c1ccc(NC(=O)C(NC[C@@H](C)c2ccc(C#N)cc2)c2ccccc2)nc1 (single isomer, unassigned) [125 Isomer 3]	17.4
CC1CN(C)C(=O)CN1c1ccc(NC(=O)C(NC[C@@H](C)c2ccc(C#N)cc2)c2ccccc2)nc1 (single isomer, unassigned) [125 Isomer 1]	1650
Cn1cc(-c2ccc(NC(=O)C(NCC3(c4ccc(Cl)cc4)CC3)c3ccccc3)nc2)cn1 (single isomer, unassigned) [97 Isomer 1]	191
CO[C@H]1CCN(c2ccc(NC(=O)C(NCC(C)c3ccc(C#N)cc3)c3ccccc3)nc2)C1 (single isomer, unassigned) [93 Isomer 2]	> 2000
CO[C@H]1CCN(c2ccc(NC(=O)C(NCC(C)c3ccc(C#N)cc3)c3ccccc3)nc2)C1 (single isomer, unassigned) [93 Isomer 1]	412
CC(CNC(C(=O)Nc1ccc(N2CCN(CC(F)(F)F)C(=O)C2)cn1)c1ccccc1)c1ccc(C#N)cc1 (single isomer, unassigned) [103 Isomer 3]	1000
CO[C@@H]1CCN(c2ccc(NC(=O)C(NCC(C)c3ccc(C#N)cc3)c3ccccc3)nc2)C1 (single isomer, unassigned) [92 Isomer 4]	> 2000

More lines, now with the values ahead:

IC50 [nM]	Structure (SMILES)
4990	Cn1cc(-c2ccc(NC(=O)[C@@H](NCCc3ccc(C#N)cc3)c3ccccc3)cc2)cn1 (single isomer, unassigned) [1 Isomer 1]
> 5000	CC(CNC(C(=O)Nc1ccc(-c2cnn(C)c2)cc1)c1ccccc1)c1ccc(C#N)cc1 (single isomer, unassigned) [82 Isomer 2]
1230	CC(CNC(C(=O)Nc1ccc(-c2cnn(C(C)(C)CO)c2)cn1)c1ccccc1)c1ccc(C#N)cc1 (single isomer, unassigned) [8 Isomer 3]
> 5000	Cn1cc(-c2ccc(NC(=O)C(NCCc3ccc(C#N)cc3)c3ccccc3)nn2)cn1 (single isomer, unassigned) [57 Isomer 2]
> 2000	Cc1nc(NC(=O)C(NCC(C)c2ccc(C#N)cc2)c2ccccc2)ccc1-c1cnn(C)c1 (single isomer, unassigned) [39 Isomer 2]
10.3	Cc1cc(C#N)ccc1CCNC(C(=O)Nc1ccc(-c2cnn(C)c2)cn1)c1ccccc1 (single isomer, unassigned) [41 Isomer 1]
374	Cn1cc(-c2ccc(NC(=O)C(NCCc3ccc(C#N)cc3)c3ccc(C#N)cc3)nc2)cn1 (single isomer, unassigned) [119 Isomer 1]
> 5000	Cn1cc(-c2cnc(NC(=O)C(NCCc3ccc(C#N)cc3)c3ccccc3)cn2)cn1 (single isomer, unassigned) [56 Isomer 2]
3270	CN1CCN(c2ccc(NC(=O)C(NCCc3ccc(C#N)cc3)c3ccccc3)cn2)CC1 (single isomer, unassigned) [36 Isomer 1]
153	Cn1cc(-c2ccc(NC(=O)C(NCCc3ccc(C(F)(F)F)nc3)c3ccccc3)nc2)cn1 (single isomer, unassigned) [140 Isomer 1]
7.76	CNC(=O)Cn1cc(-c2ccc(NC(=O)C(NC[C@@H](C)c3ccc(C#N)cc3)c3ccccc3)nc2)cn1 (single isomer, unassigned) [146 Isomer 2]
169	Cn1cc(-c2ccc(NC(=O)C(NCCc3c(F)cc(C#N)cc3F)c3ccccc3)nc2)cn1 (racemic) [86 racemic, (S)- and (R)-2-((4-cyano-2,6-difluorophenEthyl)amino)-N-(5-(1-methyl-1H-pyrazol-4-yl)pyridin-2-yl)-2-phenylacetamide]
> 2000	Cc1nc(-c2ccc(NC(=O)C(NC[C@@H](C)c3ccc(C#N)cc3)c3ccccc3)nc2)no1 (single isomer, unassigned) [107 Isomer 1]
264	COc1ccccc1C(NCCc1ccc(C#N)cc1)C(=O)Nc1ccc(-c2cnn(C)c2)cn1 (single isomer, unassigned) [87 Isomer 1]
> 2000	CCN1CCN(c2ccc(NC(=O)C(NCCc3ccc(C#N)cc3)c3ccccc3)nc2)C1=O (single isomer, unassigned) [76 Isomer 2]
> 5000	CN1CCN(c2ccc(NC(=O)C(NCCc3ccc(C#N)cc3)c3ccccc3)cn2)CC1 (single isomer, unassigned) [36 Isomer 2]
> 2000	CC(CNC(C(=O)Nc1ccc(-c2cn(C)nn2)cn1)c1ccccc1)c1ccc(C#N)cc1 (single isomer, unassigned) [100 Isomer 4]
> 2000	C[C@H](CNC(C(=O)Nc1ccc(-c2cc(=O)n(C)cn2)cn1)c1ccccc1)c1ccc(C#N)cc1 (single isomer, unassigned) [106 Isomer 1]
> 2000	N#Cc1ccc(CCNC(C(=O)Nc2ccc(N3CCC(F)(F)CC3)cn2)c2ccccc2)cc1 (single isomer, unassigned) [38 Isomer 2]
1590	Cn1cc(-c2ccc(NC(=O)C(NCCc3ccc(C#N)cc3)c3ccc(C#N)cc3)nc2)cn1 (single isomer, unassigned) [119 Isomer 2]
> 2000	CCCCCCc1ccc(C(NCCc2ccc(C#N)cc2)C(=O)Nc2ccc(-c3cnn(C)c3)cn2)cc1 (single isomer, unassigned) [121 racemic]
503	CC(CNC(C(=O)Nc1ccc(-c2cnn(CC(F)(F)F)c2)cn1)c1ccccc1)c1ccc(C#N)cc1 (single isomer, unassigned) [83 Isomer 3]
> 5000	COc1cc(-c2cnn(C)c2)ccc1NC(=O)C(NCCc1ccc(C#N)cc1)c1ccccc1 (single isomer, unassigned) [24 Isomer 1]
> 5000	COC1CCN(c2ccc(NC(=O)C(NCCc3ccc(C#N)cc3)c3ccccc3)nc2)CC1 (single isomer, unassigned) [66 Isomer 2]
> 2000	CC(CNC(C(=O)Nc1ccc(-c2cnn(C(C)(C)C)c2)cn1)c1ccccc1)c1ccc(C#N)cc1 (single isomer, unassigned) [54 Isomer 3]
> 2000	Cn1cc(-c2ccc(NC(=O)C(NCCc3ccc(C#N)cc3)c3cccc(C(F)(F)F)c3)nc2)cn1 (single isomer, unassigned) [117 Isomer 1]
> 5000	Cn1cc(-c2ccc(NC(=O)C(NCCc3ccc(Cl)cc3)c3ccccc3)nc2)cn1 (single isomer, unassigned) [55 Isomer 2]
41.4	Cn1cc(-c2ccc(NC(=O)C(NCCc3ccc(C#N)cc3C(F)(F)F)c3ccccc3)nc2)cn1 (single isomer, unassigned) [95 Isomer 1]
243	COc1cccc(C(NCCc2ccc(C#N)cc2)C(=O)Nc2ccc(-c3cnn(C)c3)cn2)c1 (single isomer, unassigned) [70 Isomer 2]
